# US6383773B2, “Penicillin conversion” (Massachusetts Institute of Technology, priority 1998, dated 2002)
# How the values were obtained:
# [1] = system: resting S. clavuligerus NP1 cells; experiment: Penicillin G ring expansion by resting cells grown on alcohol (Example 3); format: cell-based
# [2] = system: resting S. clavuligerus NP1 cells; experiment: as above; format: cell-based; conditions: 3 hours of reaction, 5.6 mM penicillin G; for Cephalosporin Production Specific: per mg DCW
# Procedure: Microorganisms, Media, and Culture Conditions: All experiments were done using S. clavuligerus NP1. Seed cultures were developed using 250 ml baffled flasks containing 40 ml of MST medium: 1% soluble starch (Sigma Chemical Co., St. Louis, Mo.); 3% Trypticase Soy Broth Without Dextrose (BBL, Cockeysville, Md.); 90 mM MOPS buffer, pH adjusted to 7.0 before autoclaving. Each flask was inoculated with 50 μl of a spore suspension (stored in 20% glycerol at −80° C.) and incubated at 30° C., 250 rpm for 48 h.
# From a seed culture, 4 ml were transferred to 500 ml baffled flasks containing 80 ml of MT medium (3% Trypticase Soy Broth Without Dextrose; 90 mM MOPS buffer, pH adjusted to 7.0 before autoclaving) with or without 1-2% ethanol or methanol. Alcohols were added just before inoculation. Cells were grown at 30° C., 250 rpm for 24 h. Mycelia from each flask were washed twice and, finally, resuspended in 10 ml of distilled water. Four ml of this cell suspension were used in the ring-expanding biotransformation.
# Ring Expansion: The ring expansion mixture contained 1.8 mM FeSO4, 1.28 mM α-ketoglutarate, 4 ml cell suspension, 5.6 mM penicillin G and 50 mM MOPS (pH 6.5) in a final volume of 10 ml contained in 250 ml baffled Erlenmeyer flasks. Additions were made in the order established by Shen et al. (Shen et al., Enzyme Microb. Technol. 17:231-234, 1984). Incubation was at 220 rpm and 30° C. for 1 to 3 h. Samples were collected and centrifuged. Biotransformation activity was detected by paper disc-agar diffusion bioassay.
# Detection of Expandase Activity: Expandase activity was detected by paper disc-agar diffusion bioassay. Two superimposed paper discs (¼ inch; Schleicher & Schuell, Keene, N.H.) were saturated with 100 μl of each supernatant or standard. After each application, the discs were allowed to dry for 30 min in a laminar hood and then placed on Petri plates containing 10 ml of LB (1% tryptone, 0.5% NaCl, 0.5% yeast extract, 0.1% glucose) 0.8% agar medium containing 50,000 IU/ml of penicillinase (Difco Bacto penase concentrate, Difco Laboratories, Detroit, Mich.) seeded with E. coli ESS (a β-lactam-supersensitive mutant). The plates were incubated overnight at 37° C. The penicillinase used is a narrow spectrum β-lactamase that destroys the substrate penicillin G but not cephalosporins. The diameters of zones of growth inhibition were measured and quantified with calibration curves using pure DAOG as standard.
# Dry Cell Weight (DCW) Assay: Two samples of 1 ml were taken from each cell suspension prepared in distilled water (10 ml), centrifuged (14,000×g, 10 min) and dried to constant weight at 65° C. The weights listed are those in the reaction mixture.
# [3] = biological target: T1, expandase from N. lactamdurans (Amycolatopsis lactamdurans, UniProt Q03047); experiment: Ring expansion by cell-free extracts of S. lividans containing pUL702-202a (Example 7); format: biochemical; conditions: S. lividans pUL702-202a cell-free extract 6 mg/ml protein, substrate 5.6 mM, after 2 h of reaction
# T1 construct: made in house; host or cells: S. lividans 1326 transformed with pUL702-202a, crude cell-free extract
# T1 sequence (Q03047 whole entry): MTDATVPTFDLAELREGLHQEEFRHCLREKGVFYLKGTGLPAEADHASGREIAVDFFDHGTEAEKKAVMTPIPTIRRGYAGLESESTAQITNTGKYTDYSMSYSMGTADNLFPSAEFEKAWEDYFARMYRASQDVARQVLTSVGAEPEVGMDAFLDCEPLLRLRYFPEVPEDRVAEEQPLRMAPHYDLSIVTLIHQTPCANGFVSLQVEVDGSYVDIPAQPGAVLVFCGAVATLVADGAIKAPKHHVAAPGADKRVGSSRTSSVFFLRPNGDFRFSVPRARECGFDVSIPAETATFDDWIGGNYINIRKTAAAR
# Procedure: (§1) Microorganism, Medium and Culture Conditions: S. lividans 1326 was used in all experiments. Cultures were grown in 250 ml baffled flasks containing 40 ml of MST medium. Each flask was inoculated with 50 μl of a spore suspension (prepared and stored at −80° C. in 20% glycerol) and incubated at 30° C., 250 rpm, for 48 h.
# (§2) Plasmids: The plasmid pUL702-202a was a gift from J. F. Martin (University of León, Spain). This vector harboured a 4.3 Kb BglII fragment containing the epimerase and expandase genes from Nocardia lactamdurans inserted at the BglII site on pIJ702. The plasmid pHJ11 was constructed by cloning a 3 Kb BglII fragment containing the expandase gene from S. clavuligerus 3585 into pIJ702 at the BglII site.
# (§3) Ring Expansion Reaction: The ring expansion mixture contained 1.8 mM FeSO4, 1.28 mM α-ketoglutarate, 6 mg/ml protein (cell-free extract), 8 mM KCl, 8 mM MgSO4, 14 mM DTT and 50 mM TrisHCl (pH 7.4) in a final volume of 2.5 ml. Substrate concentration was 5.6 mM. Additions were made following the order established by Shen et al. (Enzyme Microb. Technol. 6:402-404, 1984). Reaction mixtures were incubated in test tubes at 220 rpm, 30° C. At different times, 0.5 ml samples were taken and the reaction was stopped by adding 0.5 ml of methanol. […] Biotransformation activity was detected by paper disc-agar diffusion bioassay. […]
# [4] = biological target: T2, expandase from S. clavuligerus (Streptomyces clavuligerus, UniProt P18548); experiment: Ring expansion by cell-free extracts of S. lividans transformant pHJ11 (Example 7); format: biochemical; conditions: pHJ11 cell-free extract 6 mg/ml protein, substrate 5.6 mM, after 4 h of reaction
# T2 construct: made in house; host or cells: S. lividans 1326 transformed with pHJ11, crude cell-free extract
# T2 sequence (P18548 whole entry): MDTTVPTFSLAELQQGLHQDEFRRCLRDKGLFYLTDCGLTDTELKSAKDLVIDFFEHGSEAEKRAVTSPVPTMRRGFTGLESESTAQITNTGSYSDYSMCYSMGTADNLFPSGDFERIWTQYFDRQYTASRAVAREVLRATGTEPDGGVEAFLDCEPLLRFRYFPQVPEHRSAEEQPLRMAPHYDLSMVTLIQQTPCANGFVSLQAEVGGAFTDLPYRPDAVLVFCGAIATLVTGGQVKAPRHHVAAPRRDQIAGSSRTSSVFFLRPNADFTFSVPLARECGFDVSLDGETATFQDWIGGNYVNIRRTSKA
# Procedure: as §1, §2, §3
# [5] = cells grown in MT + 1% E (ethanol)
# [6] = cells grown in MT + 1% M (methanol)
# [7] = cells grown in MT + 2% E (ethanol)
# [8] = cells grown in MT + 2% M (methanol)
compound,measurement,setting,value
"CC1(C)S[C@@H]2[C@H](NC(=O)Cc3ccccc3)C(=O)N2[C@H]1C(=O)O [Penicillin G, penicillin G]",penicillin G expansion,[1]; cells grown in MST medium with addition of an alcohol,completely inhibited
same,Cephalosporin Production Volumetric,"[1]; cells grown in MST, 3 hours of reaction, 5.6 mM penicillin G",5.8 µg/mL
same,Cephalosporin Production Specific,"[1]; cells grown in MST, 3 hours of reaction, 5.6 mM penicillin G, per mg DCW",1.0 µg/mg
same,Cephalosporin Production Volumetric,[2]; [5],12.3 µg/mL
same,Cephalosporin Production Specific,[2]; [5],3.6 µg/mg
same,Cephalosporin Production Volumetric,[2]; [6],5.2 µg/mL
same,Cephalosporin Production Specific,[2]; [6],1.7 µg/mg
same,Cephalosporin Production Volumetric,[2]; [7],6.3 µg/mL
same,Cephalosporin Production Specific,[2]; [7],7.0 µg/mg
same,Cephalosporin Production Volumetric,[2]; [8],4.3 µg/mL
same,Cephalosporin Production Specific,[2]; [8],1.5 µg/mg
same,Cephalosporin Production Volumetric,[2]; cells grown in MT,5.3 µg/mL
same,Cephalosporin Production Specific,[2]; cells grown in MT,1.5 µg/mg
same,production of cephalosporins,[3],approximately 8 μg/ml
same,production of cephalosporins,[4],about 7 μg/ml
